Holding throughout (test): NCI tumour cell line growth inhibition, 48 h
Assay [1] has as its system A498.
The subject of assay [2] is NCI-H226.
Assay [3] concerns HCT-116.
Assay [4] has as its system HCT-15.
The subject of assay [5] is DLD-1.
For assay [6], the system named is CCRF-CEM.
The test system of assay [7] is CAKI-1.
Assay [8] concerns TK-10.
The subject of assay [9] is M14.
Assay [10] has as its system SNB-75.
Assay [11] concerns K562.
The test system of assay [12] is OVCAR-5.
In assay [13] the test system is IGROV-1.
In assay [14] the test system is HCC 2998.
Assay [15] has as its system SK-OV-3.
The test system of assay [16] is T47D.
In assay [17] the test system is MDA-N.
The test system of assay [18] is MDA-MB-231.
Assay [19] deals with DU-145.
Assay [20] relates to MDA-MB-435.

Molecules are shown by their SMILES.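 Interpolation was linear, between the two tested concentrations surrounding the appropriate level; five concentrations were tested over 48 hours in 96-well plates. The concentration for 50% growth inhibition is given as GI50.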 Activity calls are given as the source filed them. No stated cut-off is given here; in the data, active = GI50 up to about 1.1 µM and inactive = higher.

Consider `COC(=O)CCC(=O)N1CC1C` (stereo not drawn), for which the GI50 was > 100 µM (inactive) in [1]; > 100 µM (inactive) in assay [2]; > 100 µM (inactive) in assay [3]; greater than 100 µM in assay [4]; > 100 µM (inactive) in [5]; > 100 µM (inactive) in assay [6]. The GI50 in assay [7], in [8], in assay [9], in assay [10], in assay [11] and in assay [12] was > 100 µM (inactive) each time. Further, the GI50 in assay [13], in assay [14] and in assay [15] was > 100 µM (inactive) each time.

Take `C[S+]([O-])c1ccc(COP(N)(=O)N(CCCl)CCCl)cc1` (stereo not drawn): the GI50 in [1], in assay [2], in assay [3], in assay [5], in [6] and in [7] was > 100 µM (inactive) in each case. Also, the GI50 in assay [8], in assay [9], in assay [10], in assay [11], in assay [12] and in assay [13] was > 100 µM (inactive) each time. Moreover, the GI50 in assay [14] and in assay [15] was > 100 µM (inactive) throughout.

With `c1ccc2c(CNCCCCCCNCc3cccc4ccccc34)cccc2c1`, the GI50 in [1] is 18.7 µM (inactive); in assay [2], 17.4 µM (inactive); in [3], 1.99 µM (inactive); in [4], 6.75 µM; in [5], 3.78 µM (inactive); in [6], 3.06 µM (inactive). In addition, the GI50 is 7.38 µM (inactive) in assay [7]; 12.6 µM (inactive) in assay [8]; 1.79 µM (inactive) in [9]; 2.31 µM (inactive) in assay [10]; 1.56 µM (inactive) in assay [11]; 15.9 µM (inactive) in [12]. In addition, the GI50 in assay [13] was 16.2 µM (inactive); in assay [15] it was 17.5 µM (inactive).

Consider `COCCNC(=O)C1C(=O)N(CCOC)C(=O)/C1=N/N` (stereo not drawn), for which the GI50 in [2] was > 100 µM (inactive); in [3] it was > 100 µM (inactive); in [4], greater than 100 µM; in assay [5] it was > 100 µM (inactive); in [6] it was > 100 µM (inactive); in assay [7], > 100 µM (inactive). Also, the GI50 in assay [8], in [9], in assay [10], in assay [11], in assay [13] and in assay [15] was > 100 µM (inactive) throughout.

Regarding `Cc1ccc(N2C[N+](c3ccccc3)=NC(c3ccccc3)=N2)cc1`, the GI50 in [1] is 71.9 µM (inactive); in assay [2], 60.8 µM (inactive); in [3], 35.4 µM (inactive); in assay [4] it was 48.1 µM; in [5], 54.6 µM (inactive); in [6], 19.6 µM (inactive). The GI50 was > 100 µM (inactive) in [8]; 23.2 µM (inactive) in assay [11]; > 100 µM (inactive) in [12]; 48.4 µM (inactive) in assay [13]; 48.3 µM (inactive) in [14].

`CSc1ccc(NC(=O)C2c3[nH]c4ccccc4c3C3CCC(C(C)(C)C)CC3C2C(=O)O)cc1` (stereo not drawn): the GI50 is 17.9 µM (inactive) in assay [1]; 15.3 µM (inactive) in assay [2]; 14.4 µM (inactive) in [3]; 29.2 µM in [4]; 12.6 µM (inactive) in [5]; 10.7 µM (inactive) in assay [6]. The GI50 was 18.4 µM (inactive) in [9]; 17.2 µM (inactive) in [10]; 32.3 µM (inactive) in [11]; 17 µM (inactive) in assay [13]; 33 µM (inactive) in assay [14]; 16.5 µM (inactive) in assay [15].

For `N#Cc1cccc(N2C(=O)c3c(c(-c4ccccc4)c(-c4ccc(Sc5ccc(-c6c(-c7ccccc7)c7c(c(-c8ccccc8)c6-c6ccccc6)C(=O)N(c6cccc(C#N)c6)C7=O)cc5)cc4)c(-c4ccccc4)c3-c3ccccc3)C2=O)c1`, the GI50 in assay [3] is 65.2 µM (inactive); in [4] it was 43.8 µM; in assay [5], > 100 µM (inactive); in assay [6], > 100 µM (inactive); in [8], 51.8 µM (inactive); in [9] it was > 100 µM (inactive). Further, the GI50 in [11] was > 100 µM (inactive); in assay [12] it was > 100 µM (inactive); in assay [13], 28.8 µM (inactive); in assay [14], > 100 µM (inactive).

With `COc1ccc([C@@H]2CC(=O)N2)cc1`, the GI50 in [1] is > 100 µM (inactive); in [2] it was > 100 µM (inactive); in assay [3], > 100 µM (inactive); in assay [4] it was greater than 100 µM; in [5] it was > 100 µM (inactive); in [6], > 100 µM (inactive). Besides, the GI50 in [7], in [8], in [9], in assay [10], in [11] and in assay [12] was > 100 µM (inactive) each time. The GI50 in [13] and in assay [15] was > 100 µM (inactive) each time.

Turning to `CN1CCC(CN2c3ccccc3Sc3ccccc32)CC1`, the GI50 in [1] is 15.6 µM (inactive); in assay [2], 15.4 µM (inactive); in assay [3] it was 12.6 µM (inactive); in assay [4], 18.5 µM; in assay [5], 14.7 µM (inactive); in assay [6], 16.3 µM (inactive). For the same molecule, the GI50 in assay [7] was 4.93 µM (inactive); in assay [8] it was 15.7 µM (inactive); in assay [9], 13 µM (inactive); in assay [11], 13.5 µM (inactive); in assay [12] it was 19.4 µM (inactive); in assay [13] it was 16.7 µM (inactive). In addition, the GI50 is 12.9 µM (inactive) in assay [14] and 16.5 µM (inactive) in [15].

On to `O=C1C[C@@H]2CCCC[C@@H]2C12SCCS2`, for which the GI50 was > 100 µM (inactive) in assay [1]; > 100 µM (inactive) in assay [3]; greater than 100 µM in [4]; > 100 µM (inactive) in [5]; > 100 µM (inactive) in assay [6]; > 100 µM (inactive) in [7]. Moreover, the GI50 in assay [8] was > 100 µM (inactive); in [10], 61.9 µM (inactive); in assay [11], > 100 µM (inactive); in [12] it was > 100 µM (inactive); in assay [13], > 100 µM (inactive); in assay [14], > 100 µM (inactive). In addition, the GI50 in assay [15] was > 100 µM (inactive).

As for `Cc1cc(O)nc(CNC(=O)c2cccc3ccccc23)n1`, the GI50 was > 100 µM (inactive) in assay [1]; > 100 µM (inactive) in assay [2]; > 100 µM (inactive) in [3]; greater than 100 µM in [4]; > 100 µM (inactive) in assay [5]; > 100 µM (inactive) in assay [6]. Moreover, the GI50 in assay [7], in assay [8], in assay [9], in assay [10], in assay [11] and in [13] was > 100 µM (inactive) in each case. Also, the GI50 in assay [14] and in [15] was > 100 µM (inactive) throughout.

`COCC12CC(CC1=O)C1C2ON2c3ccccc3C(=O)C12c1ccccc1` (stereo not drawn): the GI50 in assay [1] was > 100 µM (inactive); in [2] it was > 100 µM (inactive); in assay [3], > 100 µM (inactive); in assay [4] it was greater than 100 µM; in [5] it was > 100 µM (inactive); in assay [6] it was 61.2 µM (inactive). Moreover, the GI50 is > 100 µM (inactive) in assay [9]; > 100 µM (inactive) in [10]; 63.7 µM (inactive) in [11]; > 100 µM (inactive) in assay [13]; > 100 µM (inactive) in assay [14]; > 100 µM (inactive) in assay [15].

Consider `NS(=O)(=O)c1nnc(/N=C(/CCC(=O)O)C(=O)O)s1`, for which the GI50 in [16] was > 100 µM (inactive); in assay [1] it was > 100 µM (inactive); in assay [17] it was > 100 µM (inactive); in assay [2], > 100 µM (inactive); in [3], > 100 µM (inactive); in [4], greater than 100 µM. Moreover, the GI50 in [18], in assay [19], in [6], in assay [20], in [7] and in assay [8] was > 100 µM (inactive) throughout. Besides, the GI50 in assay [9], in [10], in assay [11], in assay [12], in assay [13] and in assay [14] was > 100 µM (inactive) throughout. The GI50 in assay [15] was > 100 µM (inactive).

On to `CCCCCCCC(=O)N/N=C/c1ccc(Sc2nccn2C)c([N+](=O)[O-])c1`, for which the GI50 was 10.7 µM (inactive) in [16]; 15.2 µM (inactive) in [1]; 16.5 µM (inactive) in assay [17]; 14.5 µM (inactive) in assay [2]; 14.4 µM (inactive) in [3]; 14.5 µM in [4]. Besides, the GI50 is 15 µM (inactive) in assay [18]; 18.4 µM (inactive) in assay [19]; 0.538 µM (active) in assay [6]; 13.6 µM (inactive) in assay [20]; 15.5 µM (inactive) in [7]; 26.6 µM (inactive) in [8]. Moreover, the GI50 in [9] was 13.2 µM (inactive); in [10], 15.5 µM (inactive); in assay [11] it was 14.2 µM (inactive); in [12] it was 18.2 µM (inactive); in assay [13] it was 6.79 µM (inactive); in [14], 13.4 µM (inactive). Further, in [15], the GI50 was 26.7 µM (inactive).

The values are drawn from ChEMBL document CHEMBL1201862, “PubChem BioAssay data set” (2004).
